# Experimental data: patent publication US20180273464A1, “SYNTHESIS AND IN VITRO ACTIVITY OF D-LACTIC ACID OLIGOMERS” (priority 2018, published 2018)
# How the values were obtained:
# [1] = Sequestration of L-lactate by D-lactic acid oligomers, tetrazolium indicator color test strips; details: for Tetrazolium indicator (L-lactic acid): room temperature, 2 minutes; for sequestration of L-lactate in vitro: summary statement
# Method: Lactic acid concentration was measured by tetrazolium indicator color test strips (Accuvin, LLC, Napa, Calif.) from the reaction of L-lactic acid and […] in the presence of lactate dehydrogenase. Samples of D-lactic acid oligomers (n=2, n=3, n=4, n=5, and n=6) were weighed on truncated 100 microliter pipette tips. […] The reactions were carried out at room temperature for 2 minutes, then 20 microliters were applied to L-lactic acid test strips, and the results were read after 2 minutes.
# [2] = test system: retinoblastoma cells; details: earlier work (Goldberg, Weinberg 2016, 2017); cited from earlier work
# [3] = test system: normal fibroblasts; details: at a similar hydrogen ion concentration; cited from earlier work
# [4] = test system: HeLa cells; details: earlier work (Goldberg, Weinberg 2016, 2017); cited from earlier work
# [5] = earlier work (Goldberg, Weinberg 2017); cited from earlier work
# [6] = test system: cultured leukemia cells; details: earlier work (Goldberg, Weinberg 2016, 2017); cited from earlier work
# [7] = 5.0 mg oligomer in 40 microliters of 10 mM L-lactic acid
compound,measurement,setting,value
"C[C@@H](O)C(=O)O[C@H](C)C(=O)O[C@H](C)C(=O)O [D-lactic acid n = 3, D-lactic acid trimer]",Tetrazolium indicator (L-lactic acid),[1]; [7],greater than 400 mg/L
same,sequestration of L-lactate in vitro,[1],did not sequester L-lactate
"CC(O)C(=O)OC(C)C(=O)OC(C)C(=O)OC(C)C(=O)O [D-lactic acid n = 4, D-lactic acid tetramer]",Tetrazolium indicator (L-lactic acid),[1]; [7],greater than 400 mg/L
same,sequestration of L-lactate in vitro,[1],did not sequester L-lactate
"CC(O)C(=O)OC(C)C(=O)OC(C)C(=O)OC(C)C(=O)OC(C)C(=O)OC(C)C(=O)O [D-lactic acid n = 6, D-lactic acid hexamer]",Tetrazolium indicator (L-lactic acid),[1]; [7],greater than 400 mg/L
same,sequestration of L-lactate in vitro,[1],did not sequester L-lactate
"CC(O)C(=O)OC(C)C(=O)OC(C)C(=O)OC(C)C(=O)OC(C)C(=O)O [D-lactic acid n = 5, D-lactic acid pentamer]",Tetrazolium indicator (L-lactic acid),[1]; [7],greater than 400 mg/L
same,sequestration of L-lactate in vitro,[1],did not sequester L-lactate
C[C@@H](O)C(=O)O[C@H](C)C(=O)O [D-lactic acid dimer],killing of cultured retinoblastoma cells,[2],kill
same,cytotoxicity to normal fibroblasts compared with L-lactic acid,[3],less cytotoxic than L-lactic
same,Tetrazolium indicator (L-lactic acid),[1]; 0.5 mg oligomer in 40 microliters of 10 mM L-lactic acid,80 mg/L
same,Tetrazolium indicator (L-lactic acid),[1]; 1.0 mg oligomer in 40 microliters of 10 mM L-lactic acid,no color change
same,Tetrazolium indicator (L-lactic acid),"[1]; 5.0 mg oligomer in 40 microliters of 10 mM L-lactic acid, result in words",no color change
same,Tetrazolium indicator (L-lactic acid),[1]; 7.0 mg oligomer in 40 microliters of 10 mM L-lactic acid,no color change
same,killing of cultured HeLa cells,[4],kill
same,sequestration of L-lactate,[5],“sequester or trap” L-lactate
same,killing of cultured leukemia cells,[6],kill
